Tests used:
FL AR and AR-V7 [1] = molecular target: T1, FL AR and AR-V7 (Homo sapiens, UniProt P10275); assay: Western blotting of FL AR and AR-V7 in VCaP cells; assay type: cell-based; conditions: full media, 16 h, 2-63, 12b 5 and 15 μM, Enz 10 μM, SAHA 1 μM
T1 construct: Whole cell lysates were subjected to Western blotting and probed with the indicated antibodies; endogenous in cells; host or cells: VCaP
T1 sequence (P10275 1-920): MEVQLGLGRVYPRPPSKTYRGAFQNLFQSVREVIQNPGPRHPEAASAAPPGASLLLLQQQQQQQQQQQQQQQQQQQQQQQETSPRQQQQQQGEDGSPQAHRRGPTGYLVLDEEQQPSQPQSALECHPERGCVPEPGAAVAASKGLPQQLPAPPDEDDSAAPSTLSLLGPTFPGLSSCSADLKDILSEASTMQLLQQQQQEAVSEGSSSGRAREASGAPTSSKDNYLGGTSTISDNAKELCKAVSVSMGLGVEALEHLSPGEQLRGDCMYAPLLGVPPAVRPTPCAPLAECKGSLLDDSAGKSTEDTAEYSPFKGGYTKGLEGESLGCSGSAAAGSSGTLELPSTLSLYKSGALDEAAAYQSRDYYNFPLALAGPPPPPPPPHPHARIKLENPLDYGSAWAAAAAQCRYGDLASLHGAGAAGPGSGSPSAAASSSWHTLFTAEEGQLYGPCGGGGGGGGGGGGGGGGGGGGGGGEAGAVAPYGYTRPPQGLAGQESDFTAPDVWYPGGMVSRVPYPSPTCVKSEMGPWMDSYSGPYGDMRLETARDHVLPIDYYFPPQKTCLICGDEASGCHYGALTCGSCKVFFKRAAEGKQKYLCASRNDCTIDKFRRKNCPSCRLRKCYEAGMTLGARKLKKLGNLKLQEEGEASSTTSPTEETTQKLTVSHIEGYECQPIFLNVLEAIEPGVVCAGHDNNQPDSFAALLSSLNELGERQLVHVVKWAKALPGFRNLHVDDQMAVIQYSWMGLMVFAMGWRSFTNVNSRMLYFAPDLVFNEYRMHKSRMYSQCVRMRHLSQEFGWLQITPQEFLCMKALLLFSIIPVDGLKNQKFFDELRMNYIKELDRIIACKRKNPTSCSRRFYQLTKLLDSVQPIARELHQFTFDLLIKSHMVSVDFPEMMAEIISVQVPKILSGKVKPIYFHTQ
Protocol: (§1) Western Blotting. […] Proteins in cell lysates (40 μg) were separated using electrophoresis on SDS-PAGE and transferred onto PVDF (polyvinylidenedifluoride) membranes. Membranes were blocked in 5% fat-free milk followed by incubation with primary antibodies overnight at 4° C., and the secondary horseradish peroxidase-conjugated anti-rabbit or anti-mouse antibodies. The blots were developed in the Enhanced Chemiluminescence mixture and detected by ImageQuant™ LAS 4000 imaging system (GE). Density of protein bonds were calculated and analyzed by using imageJ software downloaded from the National Institute of Health website.

FL AR and AR-V7 [2] = molecular target: T2, FL AR and AR-V7 (Homo sapiens, UniProt P10275); assay: Western blotting of FL AR and AR-V7 in VCaP cells; assay type: cell-based; conditions: full media, 16 h, 2-63, 12b 5 and 15 μM, Enz 10 μM
T2 construct: Whole cell lysates were subjected to Western blotting and probed with the indicated antibodies; endogenous in cells; host or cells: VCaP
T2 sequence (P10275 1-644 isoform P10275-3): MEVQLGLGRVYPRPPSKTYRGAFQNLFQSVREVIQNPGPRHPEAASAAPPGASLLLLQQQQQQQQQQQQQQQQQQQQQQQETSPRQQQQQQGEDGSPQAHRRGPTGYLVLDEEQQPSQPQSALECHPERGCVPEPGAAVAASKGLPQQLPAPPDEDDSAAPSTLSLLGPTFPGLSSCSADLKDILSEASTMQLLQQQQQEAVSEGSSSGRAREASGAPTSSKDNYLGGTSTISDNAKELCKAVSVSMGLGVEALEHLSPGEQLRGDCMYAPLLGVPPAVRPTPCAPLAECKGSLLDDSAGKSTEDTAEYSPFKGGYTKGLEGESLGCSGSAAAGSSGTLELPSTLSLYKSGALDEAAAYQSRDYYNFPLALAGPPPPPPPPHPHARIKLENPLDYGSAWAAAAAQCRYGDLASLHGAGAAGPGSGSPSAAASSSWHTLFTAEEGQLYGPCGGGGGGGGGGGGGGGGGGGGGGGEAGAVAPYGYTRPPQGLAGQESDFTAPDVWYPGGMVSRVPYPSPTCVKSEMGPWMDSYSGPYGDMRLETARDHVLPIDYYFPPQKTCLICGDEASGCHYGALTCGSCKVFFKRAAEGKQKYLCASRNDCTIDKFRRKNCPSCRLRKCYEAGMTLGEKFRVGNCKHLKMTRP
Protocol: as §1

FL AR and AR-V7 [3] = assay: Western blotting of FL AR and AR-V7 in VCaP cells; assay type: cell-based; conditions: 10 μM, 12 h time course
Protocol: as §1

Hsp90, Hsp70, HO-1 = assay: Western blotting of Hsp90, Hsp70 and HO-1 in VCaP cells; assay type: cell-based
Protocol: as §1

C4-2 cells [4] = conditions: 5 μM, DHT 1 nM, charcoal stripped FBS, 6 days
Protocol: The medium and drug were refreshed every two days.
The anti-PCa potential of 2-63 was further characterized by assessing its inhibitory effects on DHT-stimulated C4-2 cell growth. […] C4-2 cells were cultured in charcoal-stripped, steroid-free medium and cells were stimulated with androgen.

[5] = test system: AR transcriptional activity in MDA-kb2 cells; assay: cells; assay type: cell-based; conditions: DHT 1 nM
Protocol: MDA-kb2-cell-based ARE luciferase assays were performed to assess the influence of 2-63 and related compounds on AR transcriptional activity. […] Upon androgen stimulation and addition of a luciferase substrate, […], and the intensity is proportional to the extent of AR activation. An agent that either antagonistically competes with DHT for AR binding or reduces the expression of AR diminishes luciferase activity/fluorescence signal in this experimental system. […] 10b (an alcohol) and 11 b (an azide) are synthetic precursors of the ITC hybrid 12b.
Luciferase Assay. […] For all procedures, cells were incubated at CO2 free condition. Steady-Glo® (Promega Corp., Madison, WI) reagent was added to culture media with shaking for 10 min. Samples (100 μL) were transferred to an opaque 96-well white plate, and luminescence was measured using a luminometer.

C4-2 cells [6] = assay: Colony formation assay, C4-2 cells; assay type: cell-based; conditions: 2-63 2.5 μM plus BSO 5 μM, 24 h, then drug-free medium 8 days
Protocol: Colony formation assay. Cells (22Rv1 or C4-2) were seeded in six-well plates (1,000/well) and cultured overnight. Cells were then treated with 2-63 (1 μM in 22Rv1; 2.5 μM in C4-2), BSO (5 μM) alone or in combination for 24 h. Cells were washed and cultured in a drug-free medium (22Rv1, 11 days; C4-2, 8 days). On the last day, the medium was removed, cells were washed with PBS and fixed with methanol. The colonies were stained with crystal violet solution for 3 h at room temperature and air-dried.

VCaP cells = assay: BSO pretreatment plus drug, MTT viability, VCaP cells
Protocol: Cell viability was then assessed using an MTT assay.
PCa cells (6×10^3 cells/well) were seeded into 96-well plates overnight and then treated with indicated compounds at indicated concentrations and time durations. The MTT (3-(4, 5-Dimethylthiazol-2-yl)-2,5-diphenyltetrazolium bromide) assay was performed according to the standard protocol. Briefly, MTT (0.5 mg/mL) was incubated with cells at 37° C. for 3 hours. Supernatant was removed, followed by the addition of dimethyl DMSO (100 μl). After incubation for 30 minutes at 37° C., absorbance was read at 570 nm on a microplate reader.

Compound: CC(=O)N[C@H](CSC(=S)NCCCCCCc1ccc(N2C(=S)N(c3ccc(C#N)c(C(F)(F)F)c3)C(=O)C2(C)C)cn1)C(=O)O [2-63, N-acetyl-S-((6-(5-(3-(4-cyano-3-(trifluoromethyl)phenyl)-5,5-dimethyl-4-oxo-2-thioxoimidazolidin-1-yl)pyridine-2-yl)hexyl)carbamothioyl)-D-cysteine]
- FL AR expression (FL AR and AR-V7 [1]): dose-dependently decreased
- AR-V7 expression (FL AR and AR-V7 [2]): dose-dependently decreased
- FL AR and AR-V7 in time course (FL AR and AR-V7 [3]): time-dependent decline
- Hsp70 and HO-1 in time course (Hsp90, Hsp70, HO-1; 10 μM, 12 h time course): notably increased after 6 h
- HO-1 protein level (Hsp90, Hsp70, HO-1; 16 h, 5 and 15 μM): dose-dependently upregulated
- Hsp70 protein level (Hsp90, Hsp70, HO-1; 16 h, 5 and 15 μM): significantly induced
- Hsp90 protein level (Hsp90, Hsp70, HO-1; 16 h, 5 and 15 μM): did not change
- viability reduction of DHT-stimulated C4-2 cells (C4-2 cells [4]): 70%
- AR inhibition at 1 μM relative to Enz, 10b and 11b ([5]; 1 μM): less effective
- suppression of DHT-stimulated luciferase activity ([5]; 1-5 μM): decreased luciferase activity in a dose-dependent manner
- AR inhibition at higher concentrations relative to comparators ([5]; 2.5 and 5 μM): similarly with these non-ITC-containing compounds
- colony formation of C4-2 cells (C4-2 cells [6]): very efficiently suppressed colony formation
- combinatorial effect with BSO (interaction index), VCaP (VCaP cells; BSO 2.5-10 μM 16 h pretreatment, then 2-63 1-10 μM 24 h, synergism = index <0.8): synergistically reduced viability
- viability suppression, VCaP cells (VCaP cells; BSO plus 2-63 reduced to 2.5 μM, 24 h): 60%
